According to patent US12123019B2, “Uses of kinase inhibitors for inducing and maintaining pluripotency” (Whitehead Institute for Biomedical Research, priority 2014, dated 2024):

Key:
[1] = system: OCT4-ΔPE-GFP+ naïve human ESCs; assay: Maintenance of OCT4-ΔPE-GFP+ naïve human ESCs with additional media additives or changed basal medium; format: cell-based; details: for proportion of OCT4-ΔPE-GFP+ cells: inhibitor included in 5i/L/A medium, three passages
Excerpt: The kinase inhibitors reported by Hanna and colleagues may have an additive effect in combination with the 5i/L/A medium. […] Another difference between the naïve human studies reported to date is the use of 20% knock-out serum replacement (KSR) or Albumax-containing medium (Gafni et al., 2013; Valamehr et al., 2014; Ware et al., 2014) vs. serum-free N2B27 medium (this study). The consequences of applying the inhibitor cocktail in the presence of 20% KSR was therefore investigated. […] It is concluded that the induction and maintenance of OCT4-ΔPE-GFP+ human ESCs is highly sensitive to the choice of basal medium.

[2] = system: WIBR3 OCT4-ΔPE-GFP+ human ESCs; assay: Viability screen and titration: viable (DAPI-) OCT4-ΔPE-GFP+ cells after DOX withdrawal in 2i/L/SB590885; format: cell-based; details: for concentration giving a significant improvement in the proportion of viable GFP+ cells (titration): titration of PD0325901, CHIR99021 and SB590885, two passages after DOX withdrawal
Description: To screen for small molecules that support naïve human pluripotency, doxycycline was withdrawn from a clonal line of WIBR3 OCT4-ΔPE-GFP+ human ESCs derived in 2i/L/DOX. 24 h after Dox withdrawal, cells were dissociated in 0.25% trypsin/EDTA solution (Invitrogen) and seeded at a density of 5000 cells per individual well in 96 well plates on a MEF feeder layer in 2i/L supplemented with the ROCK-inhibitor Y-27632. After an additional 24 h, 2i/L medium in each individual 96 well was supplemented with a kinase inhibitor from the LINCS inhibitor library (Gray Laboratory, Dana Farber Cancer Institute, Boston, MA) at a final concentration of 1 μM. To improve experimental consistency the small molecule library was applied using the Caliper RapidPlate 96 well Liquid Handling System (Zymark, Westborough, MA). Briefly, a master plate containing 10 mM stock solution of the library in DMSO was first diluted to 100 μM in HEPES aqueous solution (daughter plate), and subsequently to 10 μM in N2B27 basal medium supplemented with 2i/L (granddaughter plate). This granddaughter plate was then diluted a further 10× in 2i/L medium, the final medium was pre-mixed and applied slowly to the 96 well assay plate. Following two medium changes during a seven day period the proportion of OCT4-ΔPE-GFP+ human ESCs in each well was assessed using the High-Throughput System on the LSRFortessa (Beckton-Dickinson, San Jose, CA). To screen for small molecules that improve the proportion of viable OCT4-ΔPE-GFP+ cells, this assay was modified by the addition of 1.0 μM SB590885 to each well and inclusion of a 10 minute DAPI (Life Technologies) staining prior to high-throughput FACS analysis. Viable cells were gated from the DAPI-negative fraction and subsequently assessed for GFP status.
This led us to consider whether other small molecules could cooperate with 2i/L/SB590885 to improve the fraction of viable GFP+ cells. Inclusion of a live/dead assay enhanced the resolution of the 96 well high-throughput FACS analysis, allowing for more sensitive discrimination between the proportion of viable OCT4-ΔPE-GFP+ cells cultured in 2i/L/DOX vs. 2i/L/SB590885 (FIG. 3A). This viability assay was included in a modified screen in which GFP+ cells were cultured for two passages after DOX withdrawal in 2i/L/SB590885 supplemented with the kinase inhibitor library (FIG. 3B-C and FIG. 10A). […] A titration of the concentrations of PD0325901, CHIR99021 and SB590885 was also performed during two passages after DOX withdrawal followed by high-throughput FACS analysis (FIG. 3D). […] This is reminiscent of recent evidence that lowered GSK3 inhibition reduces differentiation and enhances the self-renewal of rat ESCs (Meek et al., 2013). […]

[3] = system: transgene-dependent naïve human ES cells (subclone of WIBR3); assay: Titration and proliferation assay in transgene-dependent naïve human ES cell line after DOX withdrawal (GSK3/Wnt signal modulators); format: cell-based; details: added to 4i/L/A: CHIR99021 1 μM replacing IM12, or IWR1 2.5 μM
Description: A transgene-dependent naïve human embryonic stem (ES) cell line, a subclone of WIBR3, was used to titrate different concentrations of inhibitors in 5i/L/A (see Theunissen et al., Cell Stem Cell, 2014). The cell line used is dependent on Doxycycline (DOX) to maintain the expression of two lentiviral transgenes, KLF2 and NANOG. […] A titration assay was performed to determine the optimal concentrations of small molecule inhibitors to maintain naïve human DES cells. The cells were subject to sequential passaging by single cell dissociation at low density (1:10) under four conditions: 2i/L, 5i/L/A, t5i/L/A (0.2 μM GSK3 inhibitor IM12) and 4i/L/A (removal of GSK3 inhibitor IM12).
The proliferation of naïve human ES cells in the presence of different Wnt signal modulators was quantified after the withdrawal of DOX from the transgene-dependent cell line described above. In a six-well plate, 1×10^5 cells were seeded per well and cells were dissociated and re-seeded at a 1:5 density for three successive passages. Cell numbers at successive passages were recorded under six conditions (n=2 per group): 2i/L/DOX (control), 2i/L, 5i/L/A, 4i/L/A (removal of GSK3 inhibitor IM12), 4i/L/A+CHIR99021 (1 μM), and 4i/L/A+IWR1 (2.5 μM).

[4] = system: clonal line of OCT4-ΔPE-GFP+ cells derived in the absence of transgenes; assay: Withdrawal of single kinase inhibitors or growth factors from 5i/L/FA medium; format: cell-based, human; details: for differentiation and expression of pluripotency genes: FGF and Activin A removed together from 5i/L/FA
Excerpt: To investigate the relative contribution of individual components in 5i/L/FA medium, single kinase inhibitors or growth factors were removed from a clonal line of OCT4-ΔPE-GFP+ cells derived in the absence of transgenes. […] Therefore, the maintenance of OCT4-ΔPE-GFP reporter activity is dependent primarily on MEK inhibition and BRAF inhibition, while robust proliferation of GFP+ cells requires ROCK inhibition. Recombinant FGF enhances the induction of naïve reporter activity, but can be omitted in established GFP+ cells.

[5] = system: OCT4-ΔPE-GFP-negative (primed) human ESCs; assay: Removal of latent OCT4-ΔPE-GFP-negative cells during 2i/L/DOX induction; format: cell-based; details: additional treatment with 0.1 μM PD173074 and 5 μM SB431542 upon addition of 2i/L/DOX
Excerpt: VSVG coated lentiviruses were generated in HEK-293 cells as described previously (Brambrink et al., 2008; Soldner et al., 2009; Soldner et al., 2011). Briefly, culture medium was changed 12 hr post-transfection and virus-containing supernatant was collected 48 to 72 hr post transfection. Viral supernatant was filtered through a […] filter. Virus-containing supernatants of the 2 reprogramming viruses (FUW-tetO-lox-hKLF2 and FUW-tetO-lox-hNANOG) were pooled and supplemented with the FUW-lox-M2rtTA virus and an equal volume of fresh culture medium. 1×10^6 human ESCs were seeded 24 hr before transduction in T75 flasks on matrigel in mTesr1 medium (STEMCELL Technologies). Two consecutive infections in the presence of […] of polybrene were performed over a period of 24 hr. Culture medium was changed 12 hr after the last infection. Five days after transduction, human ESCs were passaged using 0.25% trypsin/EDTA solution (Invitrogen) and re-plated on mitomycin C inactivated mouse embryonic fibroblast (MEF) feeder layers in conventional human ESC medium. To induce conversion to the naïve state, human ESCs were trypsinized and seeded at a density of 1×10^5 cells per 6 individual well on a MEF feeder layer in presence of ROCK inhibitor Y-27632. […]

[6] = system: OCT4-ΔPE-GFP+ human ESCs; assay: Validation of hit compounds in 6 well format: DOX withdrawal and culture in 2i/L plus hit compound; format: cell-based
Excerpt: To identify compounds that sustain OCT4-ΔPE-GFP activity in the absence of KLF2 and NANOG expression, a kinase inhibitor library was screened in the presence of 2i/L for a period of 7 days after DOX withdrawal in 96 well format (FIG. 2A). This screen identified 10 different hit compounds that partially rescued the proportion of GFP+ cells when assayed by high-throughput FACS analysis (FIG. 2B-C and FIG. 9A). Notable among these hits were four separate inhibitors of BRAF and four inhibitors of upstream receptor tyrosine kinases (RTKs), including DDR1, VEGFR1 and FGFR1. A validation experiment was then performed in 6 well format by withdrawing DOX and culturing the cells in 2i/L supplemented with each hit compound for up to 10 passages (FIG. 2D). Nearly all hit compounds maintained a proportion of GFP+ cells similar to that observed with DOX. […] Gene expression analysis 5 passages after DOX withdrawal confirmed the absence of KLF2 and NANOG transgene expression and retention of endogenous OCT4 and GFP transcripts (FIG. 2E and FIG. 9B). To validate these findings in an independent system DOX-inducible KLF2 and NANOG transgenes were introduced in a line of wild-type WIBR3 human ESCs. Upon application of DOX and 2i/L, dome-shaped colonies appeared that could be expanded clonally.

[7] = three passages after withdrawal of the component from 5i/L/FA

Cc1ccc(-n2nc(C(C)(C)C)cc2NC(=O)Nc2ccc(OCCN3CCOCC3)c3ccccc23)cc1 [BIRB796]
proportion of OCT4-ΔPE-GFP+ cells [1]: did not affect

Cc1cnc(-c2cnc(NCCNc3ccc(C#N)cn3)nc2-c2ccc(Cl)cc2Cl)[nH]1 [CHIR99021]
proportion of viable GFP+ cells ([2]; higher concentrations of CHIR99021): opposite effect
proportion of viable GFP+ cells ([2]; lower concentrations of CHIR99021): improved the proportion of viable GFP+ cells
concentration giving a significant improvement in the proportion of viable GFP+ cells (titration) [2]: 0.3 µM
proliferation of naïve human cells (cell number) [3]: did not further stimulate the proliferation

Cc1[nH]c2ccccc2c1C1=C(NCCc2ccc(F)cc2)C(=O)N(C)C1=O [IM12]
morphology upon long-term culture without DOX ([2]; CHIR99021 replaced with IM12): improved morphology

O=C(Nc1cccc2cccnc12)c1ccc(N2C(=O)[C@@H]3[C@H](C2=O)[C@@H]2C=C[C@H]3C2)cc1 [IWR1]
proliferation of naïve human cells (cell number) [3]: did not further stimulate the proliferation

O=C(NOC[C@H](O)CO)c1ccc(F)c(F)c1Nc1ccc(I)cc1F [PD0325901]
concentration giving a significant improvement in the proportion of viable GFP+ cells (titration) [2]: 1 µM
OCT4-ΔPE-GFP reporter activity [4, 7]: rapid and widespread loss
colony morphology [4, 7]: rapid and widespread loss
pluripotency gene expression [4, 7]: rapid and widespread loss

NC(=O)c1ccc(-c2nc(-c3ccc4c(c3)OCO4)c(-c3ccccn3)[nH]2)cc1 [SB431542]
latent OCT4-ΔPE-GFP-negative cells [5]: removed almost entirely

CN(C)CCOc1ccc(-c2nc(-c3ccncc3)c(-c3ccc4c(c3)CC/C4=N\O)[nH]2)cc1 [SB590885]
colony morphology and proliferation ([6]; 6 well, 2i/L plus hit compound, up to 10 passages without DOX): preserved the best colony morphology and proliferation
colony morphology and expression of endogenous OCT4 ([6]; wild-type WIBR3 lines with DOX-inducible KLF2 and NANOG, maintained in 2i/L/SB590885 after DOX withdrawal): retaining both colony morphology and the expression of endogenous OCT4
viability (FACS-based live/dead discrimination assay) ([2]; cells maintained in 2i/L/SB590885): reduced viability
concentration giving a significant improvement in the proportion of viable GFP+ cells (titration) [2]: 0.5 µM
OCT4-ΔPE-GFP reporter activity [4, 7]: rapid and widespread loss
colony morphology [4, 7]: rapid and widespread loss
pluripotency gene expression [4, 7]: rapid and widespread loss

O=C1c2ccccc2-c2n[nH]c3cccc1c23 [SP600125]
expression of KLF4 and KLF2 ([1]; SP600125 added to 5i/L/A): increase in expression of KLF4 and KLF2
proportion of OCT4-ΔPE-GFP+ cells [1]: did not affect

COc1ccc(N(C(=O)Oc2c(C)cccc2C)c2ccnc(Nc3ccc(N4CCN(C)CC4)cc3)n2)c(OC)c1 [WH-4-023]
proportion of viable OCT4-ΔPE-GFP+ cells after DOX withdrawal ([2]; 1 μM WH-4-023 combined with optimized concentrations of PD0325901, CHIR99021 and SB590885): further improved
fraction of viable GFP+ cells ([2]; two passages after DOX withdrawal in 2i/L/SB590885 supplemented with kinase inhibitor library): improved the fraction of viable GFP+ cells
OCT4-ΔPE-GFP reporter activity [4, 7]: slight reduction
colony morphology [4, 7]: change in morphology

CC(N)C1CCC(C(=O)Nc2ccncc2)CC1 (stereo not shown) [Y-27632]
proportion of viable GFP+ cells ([2]; Y-27632 (10 μM) added to 2i/L/SB590885 (0.5 μM), two passages): improved the proportion of viable GFP+ cells
proliferation [4, 7]: significant reduction

Activin A: cytokine (Peprotech, 20 ng/mL)
differentiation and expression of pluripotency genes [4]: more differentiation and reduced expression
OCT4-ΔPE-GFP reporter activity [4, 7]: did not cause a reduction

FGF: recombinant fibroblast growth factor 2 (R&D systems, 8 ng/mL)
differentiation and expression of pluripotency genes [4]: more differentiation and reduced expression
any of the parameters examined ([4]; withdrawal of FGF from 5i/L/FA): no apparent effect

hLIF: recombinant human LIF (made in-house)
OCT4-ΔPE-GFP reporter activity [4, 7]: unaffected
pluripotency gene expression [4, 7]: unaffected

insulin: media additive
beneficial effect of additive ([1]; insulin added): A beneficial effect was not observed
